Data: patent US6737383B1, “Herbicidal oxadiazolidines” (priority 1999, dated 2004)

Experiments:
wild oat = experiment: Test B pre/postemergence wild oat; type: in vivo, Avena fatua
Procedure, shortened: (§1)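 Test chemicals in a non-phytotoxic solvent mixture with surfactant were sprayed preemergence onto planted seeds and postemergence onto plants 2 to 18 cm tall (1- to 4-leaf stage). After twelve to sixteen days in a greenhouse, injury was visually rated against untreated controls from 0 (no effect) to 10 (complete control).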

smallflower flatsedge = experiment: Test B flood test smallflower flatsedge; type: in vivo, Cyperus difformis; conditions: for Plant response rating, S. Flatsedge (0 to 10 scale, 0 is no effect, 10 is complete control): Rate 62 g/ha; for Plant response rating, S. Flatsedge (0 to 10 scale, 0 is no effect, 10 is complete control) / S. Flatsedge plant response rating (0 to 10 scale, 0 is no effect, 10 is complete control): visual evaluation after twelve to sixteen days; for S. Flatsedge plant response rating (0 to 10 scale, 0 is no effect, 10 is complete control): Rate 125 g/ha, under heading Pre-emergence
Procedure, shortened: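 Plants were grown to the 2-leaf stage before treatment with test chemical, then held in a greenhouse for twelve to sixteen days. Injury was visually rated against untreated controls on a 0–10 scale, where 0 is no effect and 10 is complete control.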

crabgrass = experiment: Test B pre/postemergence crabgrass; type: in vivo, Digitaria sanguinalis
Procedure, shortened: as §1

soybean = experiment: Test B pre/postemergence soybean; type: in vivo, Glycine max
Procedure, shortened: as §1

wheat = experiment: Test B pre/postemergence wheat; type: in vivo, Triticum aestivum
Procedure, shortened: as §1

[1] = Postemergence, Rate 125 g/ha, scale 0 to 10, 0 is no effect, 10 is complete control
[2] = Postemergence, Rate 250 g/ha, scale 0 to 10, 0 is no effect, 10 is complete control
[3] = Preemergence, Rate 62 g/ha, scale 0 to 10 (0 no effect, 10 complete control)
[4] = Preemergence, Rate 250 g/ha, scale of 0 to 10 where 0 is no effect and 10 is complete control
[5] = Preemergence, Rate 500 g/ha, scale of 0 to 10 where 0 is no effect and 10 is complete control
[6] = Rate 62 g/ha, Postemergence, scale of 0 to 10 where 0 is no effect and 10 is complete control
[7] = Rate 500 g/ha, Postemergence, scale 0 to 10, 0 no effect, 10 complete control
[8] = flood test species, Pre-emergence
[9] = Rate 250 g/ha, Pre-emergence, flood-test species, scale 0 to 10, 0 is no effect, 10 is complete control
[10] = Rate 500 g/ha, Pre-emergence, flood test species, scale 0 to 10 (0 no effect, 10 complete control)
[11] = Postemergence, Rate 250 g/ha, scale 0 to 10
[12] = Postemergence, Rate 500 g/ha, scale of 0 to 10 where 0 is no effect and 10 is complete control
[13] = Preemergence, Rate 62 g/ha, scale of 0 to 10 where 0 is no effect and 10 is complete control
[14] = Preemergence, Rate 125 g/ha, scale of 0 to 10 where 0 is no effect and 10 is complete control
[15] = Preemergence, Rate 250 g/ha, scale 0 to 10, 0 is no effect, 10 is complete control
[16] = Preemergence, Rate 500 g/ha, scale 0 to 10, 0 is no effect, 10 is complete control
[17] = Rate 62 g/ha, Postemergence, scale 0 to 10 (0 no effect, 10 complete control)
[18] = Rate 125 g/ha, Postemergence, scale 0 to 10, 0 is no effect, 10 is complete control
[19] = Rate 250 g/ha, Pre-emergence (flood test species), scale 0 to 10, 0 is no effect, 10 is complete control
[20] = Postemergence, Rate 62 g/ha, scale 0 to 10, 0 is no effect, 10 is complete control
[21] = Postemergence, Rate 125 g/ha, scale of 0 to 10 where 0 is no effect and 10 is complete control
[22] = Preemergence, Rate 250 g/ha, scale 0 to 10 (0 no effect, 10 complete control)
[23] = Rate 500 g/ha, Postemergence, scale 0 to 10, 0 is no effect, 10 is complete control

CC(C)N(C(=O)n1oc(=O)n(N2C(C)CCCC2C)c1=O)c1ccc(F)cc1 (centres unmarked) [Compound 382]
4: Wild oats plant response rating (wild oat; [5]) | Plant response rating, Soybean (soybean; [2])
0: Plant response rating, Wild oats (wild oat; [1]) | Plant response rating, Wild oats (wild oat; [2]) | Plant response rating, Wild oats (wild oat; [3]) | Wild oats plant response rating (0 to 10 scale) (wild oat; Preemergence, Rate 125 g/ha) | Wild oats plant response rating (wild oat; [4]) | Wild oats plant response rating (wild oat; [6]) | Plant response rating, Wild oats (wild oat; [7]) | Plant response rating, S. Flatsedge (0 to 10 scale, 0 is no effect, 10 is complete control) (smallflower flatsedge; [8]) | S. Flatsedge plant response rating (0 to 10 scale, 0 is no effect, 10 is complete control) (smallflower flatsedge; flood test species) | S. Flatsedge plant response rating (smallflower flatsedge; [9]) | S. Flatsedge plant response rating (smallflower flatsedge; [10]) | Plant response rating, Crabgrass (crabgrass; [1]) | Plant response rating, Crabgrass (crabgrass; [2]) | Crabgrass plant response rating (crabgrass; [6]) | Plant response rating, Soybean (soybean; [3]) | Soybean plant response rating (0 to 10 scale) (soybean; Preemergence, Rate 125 g/ha) | Soybean plant response rating (soybean; [4]) | Soybean plant response rating (soybean; [5]) | Plant response rating, Wheat (wheat; [1]) | Plant response rating, Wheat (wheat; [2]) | Plant response rating, Wheat (wheat; [3]) | Wheat plant response rating (0 to 10 scale) (wheat; Preemergence, Rate 125 g/ha) | Wheat plant response rating (wheat; [4]) | Wheat plant response rating (wheat; [5]) | Wheat plant response rating (wheat; [6]) | Plant response rating, Wheat (wheat; [7])
1: Plant response rating, Crabgrass (crabgrass; [7]) | Soybean plant response rating (soybean; [6])
7: Crabgrass plant response rating (0 to 10 scale) (crabgrass; Preemergence, Rate 125 g/ha)
5: Plant response rating, Soybean (soybean; [7])
6: Plant response rating, Crabgrass (crabgrass; [3])
3: Plant response rating, Soybean (soybean; [1])
10: Crabgrass plant response rating (crabgrass; [5])
9: Crabgrass plant response rating (crabgrass; [4])

Cc1nnsc1Cn1c(=O)on(C(=O)N(c2ccccc2)C(C)C)c1=O [Compound 378]
10: Crabgrass plant response rating (crabgrass; [5])
2: Plant response rating, Crabgrass (crabgrass; [7]) | Plant response rating, Soybean (soybean; [7])
9: Crabgrass plant response rating (crabgrass; [4])
3: Crabgrass plant response rating (0 to 10 scale) (crabgrass; Preemergence, Rate 125 g/ha)
0: Plant response rating, Wild oats (wild oat; [1]) | Plant response rating, Wild oats (wild oat; [2]) | Plant response rating, Wild oats (wild oat; [3]) | Wild oats plant response rating (0 to 10 scale) (wild oat; Preemergence, Rate 125 g/ha) | Wild oats plant response rating (wild oat; [4]) | Wild oats plant response rating (wild oat; [5]) | Wild oats plant response rating (wild oat; [6]) | Plant response rating, Wild oats (wild oat; [7]) | Plant response rating, S. Flatsedge (0 to 10 scale, 0 is no effect, 10 is complete control) (smallflower flatsedge; [8]) | S. Flatsedge plant response rating (0 to 10 scale, 0 is no effect, 10 is complete control) (smallflower flatsedge; flood test species) | S. Flatsedge plant response rating (smallflower flatsedge; [9]) | S. Flatsedge plant response rating (smallflower flatsedge; [10]) | Plant response rating, Crabgrass (crabgrass; [1]) | Plant response rating, Crabgrass (crabgrass; [2]) | Plant response rating, Crabgrass (crabgrass; [3]) | Crabgrass plant response rating (crabgrass; [6]) | Plant response rating, Soybean (soybean; [1]) | Plant response rating, Soybean (soybean; [2]) | Plant response rating, Soybean (soybean; [3]) | Soybean plant response rating (0 to 10 scale) (soybean; Preemergence, Rate 125 g/ha) | Soybean plant response rating (soybean; [4]) | Soybean plant response rating (soybean; [5]) | Soybean plant response rating (soybean; [6]) | Plant response rating, Wheat (wheat; [1]) | Plant response rating, Wheat (wheat; [2]) | Plant response rating, Wheat (wheat; [3]) | Wheat plant response rating (0 to 10 scale) (wheat; Preemergence, Rate 125 g/ha) | Wheat plant response rating (wheat; [4]) | Wheat plant response rating (wheat; [5]) | Wheat plant response rating (wheat; [6]) | Plant response rating, Wheat (wheat; [7])

CC(C)N(C(=O)n1oc(=O)n(C(C)Cl)c1=O)c1ccccc1 (centres unmarked) [Compound 438]
6: Plant response rating, Crabgrass (crabgrass; [14]) | Soybean plant response rating (soybean; [12])
9: Crabgrass plant response rating (crabgrass; [12]) | Crabgrass plant response rating (crabgrass; [15])
0: Wild oats plant response rating (wild oat; [11]) | Wild oats plant response rating (wild oat; [12]) | Plant response rating, Wild oats (wild oat; [13]) | Plant response rating, Wild oats (wild oat; [14]) | Wild oats plant response rating (wild oat; [17]) | Wild oats plant response rating (wild oat; [18]) | Plant response rating, S. Flatsedge (0 to 10 scale, 0 is no effect, 10 is complete control) (smallflower flatsedge; [8]) | S. Flatsedge plant response rating (0 to 10 scale, 0 is no effect, 10 is complete control) (smallflower flatsedge; flood test species) | S. Flatsedge plant response rating (smallflower flatsedge; [19]) | S. Flatsedge plant response rating (smallflower flatsedge; [10]) | Plant response rating, Soybean (soybean; [13]) | Plant response rating, Soybean (soybean; [14]) | Soybean plant response rating (soybean; [15]) | Wheat plant response rating (wheat; [11]) | Wheat plant response rating (wheat; [12]) | Plant response rating, Wheat (wheat; [13]) | Plant response rating, Wheat (wheat; [14]) | Wheat plant response rating (wheat; [15]) | Wheat plant response rating (wheat; [16]) | Wheat plant response rating (wheat; [17]) | Wheat plant response rating (wheat; [18])
10: Crabgrass plant response rating (crabgrass; [16])
2: Crabgrass plant response rating (crabgrass; [17]) | Soybean plant response rating (soybean; [11]) | Soybean plant response rating (soybean; [16])
8: Crabgrass plant response rating (crabgrass; [11])
3: Wild oats plant response rating (wild oat; [16]) | Plant response rating, Crabgrass (crabgrass; [13])
1: Wild oats plant response rating (wild oat; [15]) | Soybean plant response rating (soybean; [17]) | Soybean plant response rating (soybean; [18])
4: Crabgrass plant response rating (crabgrass; [18])

CC[C@H](C)n1c(=O)on(C(=O)N(c2ccc(F)cc2F)C(C)C)c1=O [Compound 666]
5: Wild oats plant response rating (wild oat; [13])
8: Crabgrass plant response rating (crabgrass; [14])
10: Plant response rating, Crabgrass (crabgrass; [5])
7: Crabgrass plant response rating (crabgrass; [13]) | Plant response rating, Wheat (wheat; [5])
3: Wild oats plant response rating (wild oat; [23]) | Plant response rating, Crabgrass (crabgrass; [20]) | Plant response rating, Soybean (soybean; [22]) | Wheat plant response rating (wheat; [14]) | Wheat plant response rating (wheat; [23])
6: Wild oats plant response rating (wild oat; [14])
4: Plant response rating, Soybean (soybean; [20]) | Soybean plant response rating (soybean; [21]) | Plant response rating, Soybean (soybean; [5]) | Plant response rating, Wheat (wheat; [22])
9: Plant response rating, Wild oats (wild oat; [22]) | Plant response rating, Wild oats (wild oat; [5]) | Crabgrass plant response rating (crabgrass; [21]) | Crabgrass plant response rating (crabgrass; Postemergence, Rate 250 g/ha, scale of 0 to 10, 0 is no effect, 10 is complete control) | Plant response rating, Crabgrass (crabgrass; [22]) | Crabgrass plant response rating (crabgrass; [23])
0: Plant response rating, Wild oats (wild oat; [20]) | Wild oats plant response rating (wild oat; [21]) | Plant response rating, S. Flatsedge (0 to 10 scale, 0 is no effect, 10 is complete control) (smallflower flatsedge; [8]) | S. Flatsedge plant response rating (0 to 10 scale, 0 is no effect, 10 is complete control) (smallflower flatsedge; flood test species) | S. Flatsedge plant response rating (smallflower flatsedge; [19]) | S. Flatsedge plant response rating (smallflower flatsedge; Rate 500 g/ha, Pre-emergence section of Table B, 0 to 10 scale (0 no effect, 10 complete control)) | Soybean plant response rating (soybean; [13]) | Soybean plant response rating (soybean; [14]) | Plant response rating, Wheat (wheat; [20]) | Wheat plant response rating (wheat; [21]) | Wheat plant response rating (wheat; [13])
